This is an account of results in patent publication US5225416A, “1,2,3,6-tetrahydropyridine derivatives useful for improving cerebral blood circulation” (Richter Gedeon Vegyeszeti Termekek Gyara Rt., priority 1990, dated 1993).

Broadly, the ED50 is the dose that gives a 50% effect, or the effect in half of the subjects.

Holding throughout (assay type): in vivo
The test system of assay [1] is male (CFLP LATI) mice. Kind of assay: Hypobaric hypoxia (HH), antihypoxic effect in mice. The following applies: Mus musculus, po, read-out: ED50 hypobaric hypoxia. As for the experimental part:
(§1) Male (CFLP LATI) mice weighing 24-26 g and male spontaneous hypertensive rats (SHR) weighing 160-180 g were used as test animals. The test compounds were administered orally in a volume of 10 ml/kg 1 hour before the test.
Animals surviving by 100% longer than the average survival of the control group were considered as protected.

The subject of assay [2] is male (CFLP LATI) mice. As to the kind of experiment: Cytotoxic hypoxia (KCN), antihypoxic effect in mice. The following applies: Mus musculus, po, read-out: ED50 cytotoxic hypoxia.
Assay [3] deals with male spontaneous hypertensive rats (SHR). Kind of assay: Hypobaric hypoxia in SHR rats. The following applies: Rattus norvegicus, po, 1 hour before the test, 22.66 kPa, protected = survival 30 percent longer, 95% fiducial limit on next line. The procedure: as §1
(§2) The rats were placed to a 6-liter exsiccator 1 hour after pretreatment to each exsiccator 2 rats were placed. The pressure was reduced in the exsiccator within 20 seconds to 22.66 kPa (170 Hgmm) and the survival time was measured from this time on until the last breathing movement. Animals which survived by 30 percent longer than the average survival of the control group were considered as protected. From the percentage of the protected animals the ED50 i.e. the 50% effective dosage was calculated by probit analysis with the pertaining 95% fiducial limit.

Assay [4] relates to male (CFLP LATI) mice. Kind of assay: Anoxic asphyxia (asphyxial anoxia), antihypoxic effect in mice. As to conditions: Mus musculus, po, read-out: ED50 asphyxial anoxia. The procedure: as §1
(§3) The mice were treated after 16 hours fasting with the oral dosage of the test compounds. 1 hour after the treatment the animals were placed to 100 ml sealed glasses and the survival time of the animals was measured. The groups consisting of 10 animals and treated with the test compounds were considered protected if the average survival time was by 30 percent longer than the survival of the group treated with placebo. From the percentage of the surviving animals the 50% effective dosage (ED50) was calculated by probit analysis.

Assay [5] relates to mice and spontaneous hypertensive rats. Kind of assay: Hypoxic models taken together (asphyxial anoxia, hypobaric hypoxia, cytotoxic hypoxia, hypobaric hypoxia SHR). The procedure: as §1, §3
After 16 hours of fasting and 1 hour of pretreatment the animals were placed to a 6-liter exsiccator and the pressure was reduced within 20 seconds to 22.66 kPa (170 Hgmm), and from this time on the survival time was measured until the last breathing movement. Animals surviving by 100% longer than the average survival of the control group were considered as protected.
The animals were treated after 1 hour pretreatment with an i.v. dosage of 5 mg/kg potassium cyanide. The survival time was measured from the administration of potassium cyanide to the last breathing movement. The protected condition was determined according to the method described for anoxic asphyxia.
as §2
For testing the active ingredients various forms of hypoxia were used. In case of asphyxial anoxia the complete loss of the oxygen supply, at hypobaric hypoxia the reducing of the oxygen saturation condition of the haemoglobin and in case of cytotoxic hypoxia the blocking of the mytochondrial breathing enzime cause a functional disorganisation and necrosis of the cells, even death in otherwise healthy mice. The spontaneous hypertensive rats are more sensitive to the hypoxial influences than the normotensive animals as the survival chance of a person suffering from hypertension is also worse after suffering from hypoxial influences.

Setting [6] is: 1 hour before the test, mice, 22.66 kPa, protected = survival 100% longer, 95% fiducial limit on next line.
Setting [7] is: 1 hour before the test, mice, KCN 5 mg/kg i.v., 95% fiducial limit on next line.
The mark [8] stands for this setting: 1 hour before the test, mice, protected = survival 30 percent longer, probit analysis.

Take `OC(CCN1CC=C(c2ccccc2)CC1)c1ccc(Cc2ccc(Cl)cc2)cc1` (stereo not drawn) [Example 0207724]: the ED50 came out at 27.5 mg/kg in the assay with male (CFLP LATI) mice [1] (setting [6]), 17.5 mg/kg in the assay on male (CFLP LATI) mice [2] (setting [7]), 8.2 mg/kg in assay [3] and 50 mg/kg in the assay on male (CFLP LATI) mice [4] (setting [8]).
In the case of `NC(=O)CN1CCCC1=O` [Piracetam, 2-oxo-1-pyrrolidinyl-acetic amide], the ED50 with male (CFLP LATI) mice [1] was 100 mg/kg; with male (CFLP LATI) mice [2], 132 mg/kg; in the assay on male (CFLP LATI) mice [4], 100 mg/kg. Besides, the “dosage relative to that of vincamine” value in assay [5] (antihypoxic effect on two models) is given as 5-10 times. Further, the antihypoxic effect result in assay [5] (number of models on which the effect could be proved) is recorded as “could be proved on two models”.
On to `CC[C@]12CCCN3CCc4c(n(c5ccccc45)[C@@](O)(C(=O)OC)C1)[C@@H]32` [Vincamin, (+)-14β-hydroxy-14α-methoxy-carbonyl-14,15-dihydro-eburnamenine], for which the ED50 in the assay on male (CFLP LATI) mice [1] (setting [6]) worked out at 60.7 mg/kg; with male (CFLP LATI) mice [2] (setting [7]), 27 mg/kg; in assay [3] it was 27.9 mg/kg; in the assay with male (CFLP LATI) mice [4] (setting [8]), 51.1 mg/kg. For the same compound, the “effect in all hypoxic models used” value in assay [5] (all hypoxic models, in words) was “effective”. Further, in assay [5] (all hypoxic models, in words), the “survival time of the animals” value is “prolonged”.
